What was measured:
bacteria = test: Antibacterial activity; assay type: cell-based
Description: (§1) Antibacterial activity of organotin compounds. Minimal concentration
(§2) causing complete inhibition of visible growth (MIC; after three days).
(§3) Test medium: peptone-glucose agar; pH ~ 6.9-7.0.

fungi [1] = test: Antifungal activity; assay type: cell-based
Description: (§4) Antifungal activity of organotin compounds. Minimal concentra-
(§5) tion (mg/l) causing complete inhibition of visible growth (MIC;
(§6) after three days). -Test medium: glucose-agar; pH~6.9-7.0.

Cladosporium cucumerinum = assay type: cell-based; details: after three days, glucose-agar, pH~6.9-7.0
Description: as §4, §5, §6

Aspergillus niger = assay type: cell-based; details: after three days, glucose-agar, pH~6.9-7.0
Description: as §4, §5, §6

Penicillium italicum = assay type: cell-based; details: after three days, glucose-agar, pH~6.9-7.0
Description: as §4, §5, §6

Botrytis allii = assay type: cell-based; details: after three days, glucose-agar, pH~6.9-7.0
Description: as §4, §5, §6

E. coli = assay type: cell-based; details: E. coli (Gram-neg.); after three days; peptone-glucose agar; pH ~ 6.9-7.0
Description: as §1, §2, §3

B. subtilis = assay type: cell-based; details: B. subtilis (Gram-pos.); after three days; peptone-glucose agar; pH ~ 6.9-7.0
Description: as §1, §2, §3

S. lactis = assay type: cell-based; details: S. lactis (Gram-pos.); after three days; peptone-glucose agar; pH ~ 6.9-7.0
Description: as §1, §2, §3

P. fluorescens = assay type: cell-based; details: P. fluorescens (Gram-neg.); after three days; peptone-glucose agar; pH ~ 6.9-7.0
Description: as §1, §2, §3

fungi [2] = details: literature citation (1); cited from earlier work
physchem = details: water

Row | SMILES | antifungal activity (in words) (fungi [1]) | Minimal concentration causing complete inhibition of visible growth (MIC) (Cladosporium cucumerinum) | Minimal concentration causing complete inhibition of visible growth (MIC) (Aspergillus niger) | Minimal concentration causing complete inhibition of visible growth (MIC) (Penicillium italicum) | Minimal concentration causing complete inhibition of visible growth (MIC) (Botrytis allii) | Minimal concentration causing complete inhibition of visible growth (MIC) (E. coli) | Minimal concentration causing complete inhibition of visible growth (MIC) (B. subtilis) | Minimal concentration causing complete inhibition of visible growth (MIC) (S. lactis) | Minimal concentration causing complete inhibition of visible growth (MIC) (P. fluorescens) | also measured
1 | CC[CH2][Sn]([CH2]CC)([CH2]CC)[CH2]Cc1ccncc1 [tripropyl-[3-(4-pyridyl)ethyl]tin] | high antifungal as well as antibacterial activity | – | – | – | – | – | – | – | – | antibacterial activity (in words) (bacteria): high antifungal as well as antibacterial activity
2 | CCC[CH2][Sn]([CH3])([Br])[CH2]CC[N+](C)(C)C.[I-] (centres unmarked) [MeBuBrSn(CH2)3 NMe3 I, reference compound] | – | > 500 µg/mL | > 500 µg/mL | > 500 µg/mL | > 500 µg/mL | – | – | – | – | antifungal activity, MIC (fungi [1]): > 500 µg/mL
3 | CCC[CH2][Sn]([CH3])([CH2]CCC)[CH2]CCNCCCN(C)C.Cl.Cl [MeBu2 Sn(CH2)3 NH(CH2)3 NMe2 . 2] | – | 20 µg/mL | 100 µg/mL | ≤ 10 µg/mL | ≤ 10 µg/mL | 3 µg/mL | 3 µg/mL | 3 µg/mL | 3 µg/mL | solubility in water: 50%
4 | CCC[CH2][Sn]([Br])([CH2]CCC)[CH2]CCC [Bu3 SnBr] | – | – | – | – | – | – | – | – | – | antifungal activity, MIC values (fungi [2]): about 10 mg/l
5 | CCC[CH2][Sn]([CH2]CCC)([CH2]CCC)[CH2]Cc1ccncc1 [tributyl-[3-(4-pyridyl)ethyl]tin] | high antifungal activity | – | – | – | – | – | – | – | – | –
6 | CCC[CH2][Sn]([CH2]CCC)([CH2]CCC)[CH2]CCBr [Bu3 Sn(CH2)3 Br, (3-bromopropyl)tributyltin] | somewhat less effective, although they show a surprisingly effective antifungal activity | – | – | – | – | – | – | – | – | –
7 | CCC[CH2][Sn]([CH3])([Br])[CH2]CCC [MeBu2 SnBr] | – | – | – | – | – | – | – | – | – | antifungal activity, MIC values (fungi [2]): about 10 mg/l
8 | CC[CH2][Sn]([CH2]CC)([CH2]CC)[CH2]CCNCCCN(C)C.Cl.Cl [Pr3 Sn(CH2)3 NH(CH2)3 NMe2 . 2] | – | 20 µg/mL | 20 µg/mL | 10 µg/mL | ≤ 10 µg/mL | 10 µg/mL | 10 µg/mL | 10 µg/mL | 10 µg/mL | solubility in water: 50%
9 | CCC[CH2][Sn]([CH2]CCC)([CH2]CCC)[O][Sn]([CH2]CCC)([CH2]CCC)[CH2]CCC [bis(tributyltin)oxide, reference compound] | – | – | – | – | – | – | – | – | – | solubility in water: 0.003%
10 | CCC[CH2][Sn]([CH3])([Br])[CH2]CC (centres unmarked) [MePrBuSnBr] | – | – | – | – | – | – | – | – | – | antifungal activity, MIC values (fungi [2]): about 10 mg/l
11 | CCC[CH2][Sn]([CH2]CCC)([CH2]CCC)[CH2]CC(=O)OC [Bu3 Sn(CH2)2 COOMe, tributyl-(3-carbomethoxyethyl)tin] | high antifungal and antibacterial activity | 1 µg/mL | 5 µg/mL | 1 µg/mL | 0.5 µg/mL | 100 µg/mL | 30 µg/mL | 30 µg/mL | > 1000 µg/mL | antibacterial activity (in words) (bacteria): high antifungal and antibacterial activity
12 | CCC[CH2][Sn]([CH2]CCC)([CH2]CCC)[CH2]CCN(C)C [Bu3 Sn(CH2)3 NMe2, (3-dimethylaminopropyl)tributyltin] | – | – | – | – | – | – | – | – | – | solubility (physchem): ~20 mg/mL
13 | CCC[CH2][Sn]([CH2]CCC)([CH2]CCC)[CH2]CCO [Bu3 Sn(CH2)3 OH] | – | 100 µg/mL | 100 µg/mL | 100 µg/mL | 50 µg/mL | > 1000 µg/mL | 1000 µg/mL | 300 µg/mL | > 1000 µg/mL | –
14 | CC[CH2][Sn]([CH2]CC)([CH2]CC)[CH2]CCNCCCN(C)C [Pr3 Sn(CH2)3 NH(CH2)3 NMe2, N-[3-(tripropylstannyl)propyl-N', N'-dimethyltrimethylene]diamine] | – | ≤ 10 µg/mL | 10 µg/mL | ≤ 10 µg/mL | ≤ 10 µg/mL | 10 µg/mL | 10 µg/mL | 10 µg/mL | 10 µg/mL | –
15 | CCC[CH2][Sn]([CH2]CCC)([CH2]CCC)[CH2]CCCBr [Bu3 Sn(CH2)4 Br, (4-bromobutyl)tributyltin] | somewhat less effective, although they show a surprisingly effective antifungal activity | – | – | – | – | – | – | – | – | –

Source: patent US4221811A, “Antifungal and/or antibacterial organotin compounds, and use” (priority 1977, dated 1980)
